From patent publication US9643970B2, “Substituted imidazo [1,5-a]pyrazines as PDE9 inhibitors” (H Lundbeck A/S, priority 2012, dated 2017)

These compounds were tested against PDE9 (Homo sapiens, UniProt O76083) (assay: PDE9 inhibition assay). Settings: not given.
Type: biochemical
Method: Reactions are initiated by addition of the cyclic nucleotide substrate, and reactions are allowed to proceed for one hr at room temperature before being terminated through mixing with 15 uL 8 mg/mL yttrium silicate SPA beads (Amersham). […] IC50 values were calculated by non linear regression using XLfit (IDBS).

Sequence of PDE9 (O76083 whole entry): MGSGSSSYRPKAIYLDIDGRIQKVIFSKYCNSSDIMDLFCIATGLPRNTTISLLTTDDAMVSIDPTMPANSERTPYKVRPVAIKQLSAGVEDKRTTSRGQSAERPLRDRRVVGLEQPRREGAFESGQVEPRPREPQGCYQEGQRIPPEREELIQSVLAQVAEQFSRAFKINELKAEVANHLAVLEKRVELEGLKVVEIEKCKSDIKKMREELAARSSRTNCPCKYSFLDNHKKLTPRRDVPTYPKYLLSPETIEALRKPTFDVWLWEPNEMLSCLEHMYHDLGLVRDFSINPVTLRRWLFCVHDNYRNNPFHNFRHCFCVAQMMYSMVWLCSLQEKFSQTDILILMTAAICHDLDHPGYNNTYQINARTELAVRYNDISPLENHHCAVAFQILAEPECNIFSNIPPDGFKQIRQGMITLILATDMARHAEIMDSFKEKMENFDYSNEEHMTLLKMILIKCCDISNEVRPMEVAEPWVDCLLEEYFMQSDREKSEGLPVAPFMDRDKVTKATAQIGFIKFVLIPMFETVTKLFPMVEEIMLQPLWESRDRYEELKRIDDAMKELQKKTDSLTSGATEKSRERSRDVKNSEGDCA

| IC50 [nM] | SMILES |
| --- | --- |
| 32 | O=c1[nH]c(CN2CC(Oc3cnccn3)C2)cn2c(-c3ccccc3)ncc12 [Compound 4, 3-phenyl-6-[(3-pyrazin-2-yloxyazetidin-1-yl)methyl]-7h-imidazo[1,5-a]pyrazin-8-one] |
| 17 | CC(C)OC1CN(Cc2cn3c(C4CCCC4)ncc3c(=O)[nH]2)C1 [Compound 57, 3-cyclopentyl-6-[(3-isopropoxyazetidin-1-yl)methyl]-7h-imidazo[1,5-a]pyrazin-8-one] |
| 37 | COC1CN(C(c2ccccc2)c2cn3c(-c4ccccc4)ncc3c(=O)[nH]2)C1 (centres unmarked) [Compound 22, 6-[(3-methoxyazetidin-1-yl)-phenyl-methyl]-3-phenyl-7h-imidazo[1,5-a]pyrazin-8-one] |
| 21 | O=c1[nH]c(CN2CC(Oc3ccccc3F)C2)cn2c(C3CCOCC3)ncc12 [Compound 50, 6-[[3-(2-fluorophenoxy)azetidin-1-yl]methyl]-3-tetrahydropyran-4-yl-7h-imidazo[1,5-a]pyrazin-8-one] |
| 78 | O=c1[nH]c(CN2CC(c3ccccn3)C2)cn2c(C3CCOCC3)ncc12 [Compound 62, 6-[[3-(2-pyridyl)azetidin-1-yl]methyl]-3-tetrahydropyran-4-yl-7h-imidazo[1,5-a]pyrazin-8-one] |
| 50 | Cc1cc(C)nc(OC2CN(Cc3cn4c(-c5ccccc5)ncc4c(=O)[nH]3)C2)n1 [Compound 14, 6-[[3-(4,6-dimethylpyrimidin-2-yl)oxyazetidin-1-yl]methyl]-3-phenyl-7h-imidazo[1,5-a]pyrazin-8-one] |

Same assay, conditions: SPA assay, 10 nM 3H-cAMP, 1 hour incubation; read-out: IC50

| IC50 [nM] | SMILES |
| --- | --- |
| 16 | O=c1[nH]c(CN2CC(Oc3ccccc3F)C2)cn2c(-c3ccc(F)cc3)ncc12 [Compound 49, 6-[[3-(2-fluorophenoxy)azetidin-1-yl]methyl]-3-(4-fluorophenyl)-7h-imidazo[1,5-a]pyrazin-8-one] |
| 19 | CC1CN(Cc2ncccn2)CC1c1cn2c(C3CCOCC3)ncc2c(=O)[nH]1 (centres unmarked) [Compound 90, 6-[4-methyl-1-(pyrimidin-2-ylmethyl)pyrrolidin-3-yl]-3-tetrahydropyran-4-yl-7h-imidazo[1,5-a]pyrazin-8-one] |
| 187 | CC(NCC1CCCCC1)c1cn2c(-c3ccccc3)ncc2c(=O)[nH]1 (centres unmarked) [Compound 2, 6-[1-(cyclohexylmethylamino)ethyl]-3-phenyl-7h-imidazo[1,5-a]pyrazin-8-one] |
| 8 | CC(c1cn2c(C3CCCC3)ncc2c(=O)[nH]1)N1CC(Oc2ncccn2)C1 (centres unmarked) [Compound 42, 3-cyclopentyl-6-[1-(3-pyrimidin-2-yloxyazetidin-1-yl)ethyl]-7h-imidazo[1,5-a]pyrazin-8-one] |
| 15 | O=c1[nH]c(CN2CCC(Nc3ccccc3)C2)cn2c(C3CCOCC3)ncc12 (centres unmarked) [Compound 66, 6-[(3-anilinopyrrolidin-1-yl)methyl]-3-tetrahydropyran-4-yl-7h-imidazo[1,5-a]pyrazin-8-one] |
| 14 | O=c1[nH]c(CN2CC(Oc3ccncc3)C2)cn2c(C3CCOCC3)ncc12 [Compound 82, 6-[[3-(4-pyridyloxy)azetidin-1-yl]methyl]-3-tetrahydropyran-4-yl-7h-imidazo[1,5-a]pyrazin-8-one] |
| 79 | CC(c1cn2c(-c3ccccc3)ncc2c(=O)[nH]1)N1CC(c2ncccn2)C1 (centres unmarked) [Compound 36, 3-phenyl-6-[1-(3-pyrimidin-2-ylazetidin-1-yl)ethyl]-7h-imidazo[1,5-a]pyrazin-8-one] |
| 16 | O=c1[nH]c(CN2CC(Oc3ccc(OC(F)(F)F)cc3)C2)cn2c(-c3ccc(F)cc3)ncc12 [Compound 74, 3-(4-fluorophenyl)-6-[[3-[4-(trifluoromethoxy)phenoxy]azetidin-1-yl]methyl]-7h-imidazo[1,5-a]pyrazin-8-one] |
